Assay results taken from patent US8703979B2, “Preparation of anticancer-active tricyclic compounds via alkyne coupling reaction” (Taheebo Japan Co., Ltd., priority 2010, dated 2014).

melting point: > 193 °C (dec.)
SMILES: CC(O)c1cc2c(s1)C(=O)c1cccc(O)c1C2=O (stereo not shown) [Example 20, 2-(1-hydroxyethyl)-5-hydroxynaphtho[2,3-b]thiophene-4,9-dione]
